The test deals with SMARTCAR-MTH1-wt-HiBiT (Jurkat.7 cells). In words: HiBit Lytic Assay (HiBit DC50, MTH1 degraders of Table 2). The following applies: Jurkat.7 SMARTCAR-MTH1-wt-HiBiT cells, compound treatment time 4 hr, 11-point half log dose response. It is filed as cell-based, human. The essentials: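 Jurkat.7 cells expressing SMARTCAR-MTH1-wt-HiBiT were treated at 37° C with 11-point half-log dilutions (top final 1000 nM or 833 nM, duplicates, 0.1% DMSO). Remaining HiBiT-tagged protein was read by Nano-Glo HiBiT lytic luminescence, normalized to media-only and DMSO controls.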
The term DC50 denotes the concentration at which degradation of the target reaches its halfway point. Read a low DC50 as a more potent degrader. Consider `CNc1c(C(=O)NC2CC2)cnc2cc(C(F)(F)F)c(-c3ccc(C(=O)NCCCCCCCCc4ccc5c(n4)CN(C4CCC(=O)NC4=O)C5=O)c(F)c3)cc12` (stereo not shown) [Compound 409, N-cyclopropyl-6-[4-[8-[6-(2,6-dioxo-3-piperidyl)-5-oxo-7H-pyrrolo[3,4-b]pyridin-2-yl]octylcarbamoyl]-3-fluoro-phenyl]-4-(methylamino)-7-(trifluoromethyl)quinoline-3-carboxamide], for which the DC50 is < 100 nM. On to `CNc1c(C(=O)NC2CC2)cnc2cc(F)c(-c3ccc(C(=O)NCCCCn4cc(CNc5cccc6c5C(=O)N(C5CCC(=O)NC5=O)C6=O)nn4)c(F)c3)cc12` (stereo not shown) [Compound 411, N-cyclopropyl-6-[4-[4-[4-[[[2-(2,6-dioxo-3-piperidyl)-1,3-dioxo-isoindolin-4-yl]amino]methyl]triazol-1-yl]butylcarbamoyl]-3-fluoro-phenyl]-7-fluoro-4-(methylamino)quinoline-3-carboxamide], for which the DC50 was < 100 nM.

`CNc1c(C(=O)NC2CC2)cnc2cc(F)c(-c3ccc(C(=O)NCCCCn4cc(COc5cccc6c5C(=O)N(C5CCC(=O)NC5=O)C6=O)nn4)c(F)c3)cc12` (stereo not shown) [Compound 412, N-cyclopropyl-6-[4-[4-[4-[[2-(2,6-dioxo-3-piperidyl)-1,3-dioxo-isoindolin-4-yl]oxymethyl]triazol-1-yl]butylcarbamoyl]-3-fluoro-phenyl]-7-fluoro-4-(methylamino)quinoline-3-carboxamide]: the DC50 is < 100 nM. For the compound `O=C1CCC(N2C(=O)c3cccc(OCc4cn(CCCCNC(=O)c5ccc(-c6cc7c(Nc8ccccc8)c(C(=O)NC8CC8)cnc7cc6F)cc5F)nn4)c3C2=O)C(=O)N1` (stereo not shown) [Compound 413, 4-anilino-N-cyclopropyl-6-[4-[4-[4-[[2-(2,6-dioxo-3-piperidyl)-1,3-dioxo-isoindolin-4-yl]oxymethyl]triazol-1-yl]butylcarbamoyl]-3-fluoro-phenyl]-7-fluoro-quinoline-3-carboxamide], the DC50 was < 100 nM. `COc1cc2ncc(C(=O)NC3CC3)c(Nc3ccccc3)c2cc1-c1ccc(C(=O)NCCCCn2cc(COc3cccc4c3C(=O)N(C3CCC(=O)NC3=O)C4=O)nn2)c(F)c1` (stereo not shown) [Compound 414, 4-anilino-N-cyclopropyl-6-[4-[4-[4-[[2-(2,6-dioxo-3-piperidyl)-1,3-dioxo-isoindolin-4-yl]oxymethyl]triazol-1-yl]butylcarbamoyl]-3-fluoro-phenyl]-7-methoxy-quinoline-3-carboxamide]: the DC50 is < 100 nM.

Regarding `O=C1CCC(N2C(=O)c3cccc(OCc4cn(CCCCNC(=O)c5ccc(-c6cc7c(Nc8ccccc8)c(C(=O)NC8CC8)cnc7cc6C(F)(F)F)cc5F)nn4)c3C2=O)C(=O)N1` (stereo not shown) [Compound 415, 4-anilino-N-cyclopropyl-6-[4-[4-[4-[[2-(2,6-dioxo-3-piperidyl)-1,3-dioxo-isoindolin-4-yl]oxymethyl]triazol-1-yl]butylcarbamoyl]-3-fluoro-phenyl]-7-(trifluoromethyl)quinoline-3-carboxamide], the DC50 is < 100 nM.

Take `CNc1c(C(=O)NC2CC2)cnc2cc(F)c(-c3ccc(C(=O)NCCCCNC(=O)CCc4cccc5c4CN(C4CCC(=O)NC4=O)C5=O)c(F)c3)cc12` (stereo not shown) [Compound 419, N-cyclopropyl-6-[4-[4-[3-[2-(2,6-dioxo-3-piperidyl)-1-oxo-isoindolin-4-yl]propanoylamino]butylcarbamoyl]-3-fluoro-phenyl]-7-fluoro-4-(methylamino)quinoline-3-carboxamide]: the DC50 is < 100 nM. Take `CNc1c(C(=O)NC2CC2)cnc2cc(C(F)(F)F)c(-c3ccc(C(=O)NCCCCn4cc(C5(Nc6cccc7c6C(=O)N(C6CCC(=O)NC6=O)C7=O)CC5)nn4)c(F)c3)cc12` (stereo not shown) [Compound 421, N-cyclopropyl-6-[4-[4-[4-[1-[[2-(2,6-dioxo-3-piperidyl)-1,3-dioxo-isoindolin-4-yl]amino]cyclopropyl]triazol-1-yl]butylcarbamoyl]-3-fluoro-phenyl]-4-(methylamino)-7-(trifluoromethyl)quinoline-3-carboxamide]: the DC50 is < 100 nM.

In the case of `O=C(CNc1cccc2c1C(=O)N(C1CCC(=O)NC1=O)C2=O)NCCCCNC(=O)c1ccc(-c2cc3c(NC45CC(C4)C5)c(C(=O)NC4CC4)cnc3cc2F)cc1F` (stereo not shown) [Compound 424, 4-(3-bicyclo[1.1.1]pentanylamino)-N-cyclopropyl-6-[4-[4-[[2-[[2-(2,6-dioxo-3-piperidyl)-1,3-dioxo-isoindolin-4-yl]amino]acetyl]amino]butylcarbamoyl]-3-fluoro-phenyl]-7-fluoro-quinoline-3-carboxamide], the DC50 was < 100 nM.

In the case of `CC(NC(=O)CCCCNC(=O)CNc1cccc2c1C(=O)N(C1CCC(=O)NC1=O)C2=O)c1ccc(-c2cc3c(Nc4ccccc4)c(C(=O)NC4CC4)cnc3cc2F)cc1F` (stereo not shown) [Compound 429, 4-anilino-N-cyclopropyl-6-[4-[1-[5-[[2-[[2-(2,6-dioxo-3-piperidyl)-1,3-dioxo-isoindolin-4-yl]amino]acetyl]amino]pentanoylamino]ethyl]-3-fluoro-phenyl]-7-fluoro-quinoline-3-carboxamide], the DC50 is < 100 nM. The value for `CNc1c(C(=O)NC2CC2)cnc2cc(C(F)(F)F)c(-c3ccc(C(=O)NCCCCn4cc(C(C)Nc5cccc6c5C(=O)N(C5CCC(=O)NC5=O)C6=O)nn4)c(F)c3)cc12` (stereo not shown) [Compound 430, N-cyclopropyl-6-[4-[4-[4-[1-[[2-(2,6-dioxo-3-piperidyl)-1,3-dioxo-isoindolin-4-yl]amino]ethyl]triazol-1-yl]butylcarbamoyl]-3-fluoro-phenyl]-4-(methylamino)-7-(trifluoromethyl)quinoline-3-carboxamide] was < 100 nM. With `CNc1c(C(=O)NC2CC2)cnc2cc(C(F)(F)F)c(-c3ccc(C(=O)NCCCCn4cc(C(C)Nc5cccc6c5C(=O)N(C5CCC(=O)NC5=O)C6=O)nn4)nc3)cc12` (stereo not shown) [Compound 431, N-cyclopropyl-6-(6-((4-(4-(1-((2-(2,6-dioxopiperidin-3-yl)-1,3-dioxoisoindolin-4-yl)amino)ethyl)-1H-1,2,3-triazol-1-yl)butyl)carbamoyl)pyridin-3-yl)-4-(methylamino)-7-(trifluoromethyl)quinoline-3-carboxamide], the DC50 was < 1000 nM. Turning to `COc1cc2ncc(C(=O)NC3CC3)c(Nc3ccccc3)c2cc1-c1ccc(C(=O)NCCCCn2cc(C(C)Nc3cccc4c3C(=O)N(C3CCC(=O)NC3=O)C4=O)nn2)c(F)c1` (stereo not shown) [Compound 432, N-cyclopropyl-6-(4-((4-(4-(1-((2-(2,6-dioxopiperidin-3-yl)-1,3-dioxoisoindolin-4-yl)amino)ethyl)-1H-1,2,3-triazol-1-yl)butyl)carbamoyl)-3-fluorophenyl)-7-methoxy-4-(phenylamino)quinoline-3-carboxamide], the DC50 was < 100 nM. As for `CC(Nc1cccc2c1C(=O)N(C1CCC(=O)NC1=O)C2=O)c1cn(CCCCNC(=O)c2ccc(-c3cc4c(Nc5ccccc5)c(C(=O)NC5CC5)cnc4cc3F)cc2F)nn1` (stereo not shown) [Compound 433, N-cyclopropyl-6-(4-((4-(4-(1-((2-(2,6-dioxopiperidin-3-yl)-1,3-dioxoisoindolin-4-yl)amino)ethyl)-1H-1,2,3-triazol-1-yl)butyl)carbamoyl)-3-fluorophenyl)-7-fluoro-4-(phenylamino)quinoline-3-carboxamide], the DC50 is < 100 nM.

`CC(Nc1cccc2c1C(=O)N(C1CCC(=O)NC1=O)C2=O)c1cn(CCCCNC(=O)c2ccc(-c3cc4c(Nc5ccccc5)c(C(=O)NC5CC5)cnc4cc3C(F)(F)F)cc2F)nn1` (stereo not shown) [Compound 434, N-cyclopropyl-6-(4-((4-(4-(1-((2-(2,6-dioxopiperidin-3-yl)-1,3-dioxoisoindolin-4-yl)amino)ethyl)-1H-1,2,3-triazol-1-yl)butyl)carbamoyl)-3-fluorophenyl)-4-(phenylamino)-7-(trifluoromethyl)quinoline-3-carboxamide]: the DC50 is < 100 nM. Consider `CNc1c(C(=O)NC2CC2)cnc2cc(C(F)(F)F)c(-c3ccc(C(=O)NCCCCn4cc(C(C)(C)Nc5cccc6c5C(=O)N(C5CCC(=O)NC5=O)C6=O)nn4)c(F)c3)cc12` (stereo not shown) [Compound 435, N-cyclopropyl-6-(4-((4-(4-(2-((2-(2,6-dioxopiperidin-3-yl)-1,3-dioxoisoindolin-4-yl)amino)propan-2-yl)-1H-1,2,3-triazol-1-yl)butyl)carbamoyl)-3-fluorophenyl)-4-(methylamino)-7-(trifluoromethyl)quinoline-3-carboxamide], for which the DC50 was < 100 nM. Consider `CNc1c(C(=O)NC2CC2)cnc2cc(F)c(-c3ccc(C(=O)NCCCCn4cc(C(C)(C)Nc5cccc6c5C(=O)N(C5CCC(=O)NC5=O)C6=O)nn4)c(F)c3)cc12` (stereo not shown) [Compound 436, N-cyclopropyl-6-(4-((4-(4-(2-((2-(2,6-dioxopiperidin-3-yl)-1,3-dioxoisoindolin-4-yl)amino)propan-2-yl)-1H-1,2,3-triazol-1-yl)butyl)carbamoyl)-3-fluorophenyl)-7-fluoro-4-(methylamino)quinoline-3-carboxamide], for which the DC50 was < 100 nM. Take `CNc1c(C(=O)NC2CC2)cnc2cc(C(F)(F)F)c(-c3ccc(C(=O)NCCCCn4cc(C(C)(C)Nc5cccc6c5C(=O)N(C5CCC(=O)NC5=O)C6=O)nn4)nc3)cc12` (stereo not shown) [Compound 437, N-cyclopropyl-6-(6-((4-(4-(2-((2-(2,6-dioxopiperidin-3-yl)-1,3-dioxoisoindolin-4-yl)amino)propan-2-yl)-1H-1,2,3-triazol-1-yl)butyl)carbamoyl)pyridin-3-yl)-4-(methylamino)-7-(trifluoromethyl)quinoline-3-carboxamide]: the DC50 is < 100 nM.

Consider `O=C1CCC(N2Cc3c(CCCC(O)C(=O)NCCNC(=O)c4ccc(-c5cc6c(Nc7ccccc7)c(C(=O)NC7CC7)cnc6cc5F)cc4F)cccc3C2=O)C(=O)N1` (stereo not shown) [Compound 439, N-cyclopropyl-6-(4-((2-(5-(2-(2,6-dioxopiperidin-3-yl)-1-oxoisoindolin-4-yl)-2-hydroxypentanamido)ethyl)carbamoyl)-3-fluorophenyl)-7-fluoro-4-(phenylamino)quinoline-3-carboxamide], for which the half-maximal degradation concentration (DC50) was < 100 nM.

(Values after patent US20210198256A1, “COMPOUNDS FOR THE DEGRADATION OF BRD9 OR MTH1” (C4 Therapeutics, Inc., priority 2018, published 2021).)
